How the values were obtained:
[1] = Kinetic thiol consumption assay with model thiol glutathione; type: physicochemical; set-up: Rate constant with glutathione (k(GSH)): unit not given here; details: for Rate constant with glutathione (k(GSH)): 500 μM ligand, 5 μM thiol, phosphate buffer pH 8; for Rate constant with Glutathione: Protein: Glutathione, cysteine position NA, in h-1
Method in brief: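 First, 5 μM glutathione in degassed phosphate buffer (pH 8) receives immobilized TCEP beads (2% v/v). Then acrylamide is added and plates incubate 1 h at room temperature. Finally, fluorescence (380/470 nm) is normalized and fitted to first-order decay for rate constants.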

[2] = target: T1, human cyclin-dependent kinase 2 (Cdk2) (Homo sapiens, UniProt P24941); assay: Kinetic thiol consumption assay with wild type Cdk2 (C177); type: binding; set-up: key to Rate enhancement, Cdk2 WT: k(Cdk2) divided by k(model thiol); Rate constant with Cdk2 (k(Cdk2)): unit not given here; details: for Rate constant with Cdk2 (k(Cdk2)): 500 μM ligand, 5 μM thiol, phosphate buffer pH 8; for Rate enhancement, Cdk2 WT: no additional mutations; for Rate constant with Cdk2 WT: Protein: Cdk2, cysteine position WT, in h^-1; for k(Cdk2)/k(Cdk2_mut) rate enhancement: model thiol Cdk2[C177A, F80C, K278C]; for k(Cdk2)/k(GSH) rate enhancement: model thiol glutathione
T1 construct: poly-histidine; made in house; host or cells: E. coli
Method in brief: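 His-tagged human Cdk2 (single surface cysteine C177), expressed in E. coli, or a model thiol at 5 μM in degassed phosphate buffer pH 8 was pre-treated with immobilized TCEP beads (2% v/v) before acrylamide addition. Fluorescence (ex/em 380/470 nm) was read after 1 h at room temperature, normalized to DMSO/thiol-only control and plotted versus time.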

Cdk2[C177A, F80C, K278C] = target: T2, Cdk2[C177A, F80C, K278C] (Homo sapiens, UniProt P24941, C177A/F80C/K278C); assay: Kinetic thiol consumption assay with mutant Cdk2 as model thiol; type: binding; set-up: unit not given here; details: 500 μM ligand, 5 μM thiol, phosphate buffer pH 8
T2 construct: poly-histidine; made in house; host or cells: E. coli
Method in brief: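 Model thiol: His-tagged human Cdk2 C177A/F80C/K278C (two engineered surface cysteines), E. coli-expressed, 5 μM in degassed phosphate buffer pH 8 with immobilized TCEP beads (2% v/v). Fluorescence (ex/em 380/470 nm) followed over time at room temperature, normalized to DMSO/thiol control. First-order decay fit gives rate constants.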

Cdk2(C177A, F80C) = target: T3, Cdk2(C177A, F80C) (Homo sapiens, UniProt P24941, C177A/F80C); assay: Kinetic thiol consumption assay with Cdk2 mutant F80C, incl. kobs versus concentration (Kd, k2); type: binding; set-up: key to Rate enhancement, Cdk2 F80C: Cdk2 rate constant divided by model-thiol rate constant; details: additional mutation C177A; for Rate constant with Cdk2 F80C: Protein: Cdk2, cysteine position F80C, in h^-1
T3 construct: poly-histidine; made in house; host or cells: E. coli
Method in brief: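 His-tagged Cdk2(C177A/F80C) from E. coli or model thiol, 5 μM in degassed phosphate buffer pH 8 with TCEP beads, reacted with acrylamide ligands; fluorescence (ex/em 380/470 nm) normalized to DMSO control and fitted to first-order decay for kobs. Kd and k2 obtained from hyperbolic fit of kobs versus ligand concentration.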

Cdk2(H71C) (C177A) = target: T4, Cdk2(H71C) (C177A) (Homo sapiens, UniProt P24941, C177A/H71C); assay: Kinetic thiol consumption assay with Cdk2 mutant H71C; type: binding; set-up: key to Rate enhancement, Cdk2 H71C: rate constant with Cdk2 ÷ rate constant with model thiol (fold); details: additional mutation C177A; for Rate constant with Cdk2 H71C: Protein: Cdk2, cysteine position H71C, in h^-1
T4 construct: poly-histidine; made in house; host or cells: E. coli
Method in brief: (§1)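 5 μM thiol, degassed phosphate pH 8, 2% v/v immobilized TCEP beads; 1 h RT; fluorescence ex 380/em 470 nm; normalized vs DMSO/thiol-only; first-order exponential decay fit → rate constant; Cdk2 k / model-thiol k = rate enhancement per acrylamide.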

Cdk2(S276C) (C177A) = target: T5, Cdk2(S276C) (C177A) (Homo sapiens, UniProt P24941, C177A/S276C); assay: Kinetic thiol consumption assay with Cdk2 mutant S276C; type: binding; set-up: key to Rate enhancement, Cdk2 S276C: rate constant with Cdk2 ÷ rate constant with model thiol (fold); details: additional mutation C177A; for Rate constant with Cdk2 S276C: Protein: Cdk2, cysteine position S276C, in h^-1
T5 construct: poly-histidine; made in house; host or cells: E. coli
Method in brief: as §1

Cdk2(N272C) (C177A) = target: T6, Cdk2(N272C) (C177A) (Homo sapiens, UniProt P24941, C177A/N272C); assay: Kinetic thiol consumption assay with Cdk2 mutant N272C; type: binding; set-up: key to Rate enhancement, Cdk2 N272: rate constant with Cdk2 ÷ rate constant with model thiol (fold); details: for Rate enhancement, Cdk2 N272: Cdk2 N272, additional mutation C177A; for Rate constant with Cdk2 N272C: Protein: Cdk2, cysteine position N272C, additional mutation C177A, in h^-1
T6 construct: poly-histidine; made in house; host or cells: E. coli
Method in brief: as §1

Cdk2(T182C) (C177A) = target: T7, Cdk2(T182C) (C177A) (Homo sapiens, UniProt P24941, C177A/T182C); assay: Kinetic thiol consumption assay with Cdk2 mutant T182C; type: binding; set-up: key to Rate enhancement, Cdk2 T182C: rate constant with Cdk2 ÷ rate constant with model thiol (fold); details: additional mutation C177A; for Rate constant with Cdk2 T182C: Protein: Cdk2, cysteine position T182C, in h^-1
T7 construct: poly-histidine; made in house; host or cells: E. coli
Method in brief: as §1

Cdk2(R122C) (C177A) = target: T8, Cdk2(R122C) (C177A) (Homo sapiens, UniProt P24941, C177A/R122C); assay: Kinetic thiol consumption assay with Cdk2 mutant R122C; type: binding; set-up: key to Rate enhancement, Cdk2 R122C: rate constant with Cdk2 ÷ rate constant with model thiol (fold); details: additional mutation C177A; for Rate constant with Cdk2 R122C: Protein: Cdk2, cysteine position R122C, in h-1
T8 construct: poly-histidine; made in house; host or cells: E. coli
Method in brief: as §1

Cdk2(S181C) (C177A) = target: T9, Cdk2(S181C) (C177A) (Homo sapiens, UniProt P24941, C177A/S181C); assay: Kinetic thiol consumption assay with Cdk2 mutant S181C; type: binding; set-up: key to Rate enhancement, Cdk2 S181C: rate constant with Cdk2 ÷ rate constant with model thiol (fold); details: additional mutation C177A; for Rate constant with Cdk2 S181C: Protein: Cdk2, cysteine position S181C, in h^-1
T9 construct: poly-histidine; made in house; host or cells: E. coli
Method in brief: as §1

SMILES	Rate constant with glutathione (k(GSH)) [1]	Rate constant with Glutathione [1]	Rate constant with Cdk2 (k(Cdk2)) [2]	Rate enhancement, Cdk2 WT [2]	Rate constant with Cdk2 WT [2]	k(Cdk2)/k(Cdk2_mut) rate enhancement [2]	k(Cdk2)/k(GSH) rate enhancement [2]	Rate constant with Cdk2[C177A, F80C, K278C] (k(Cdk2_mut)) (Cdk2[C177A, F80C, K278C])	Rate enhancement, Cdk2 F80C (Cdk2(C177A, F80C))	Rate enhancement, Cdk2 H71C (Cdk2(H71C) (C177A))	Rate enhancement, Cdk2 S276C (Cdk2(S276C) (C177A))	Rate constant with Cdk2 S276C (Cdk2(S276C) (C177A))	Rate enhancement, Cdk2 N272 (Cdk2(N272C) (C177A))	Rate constant with Cdk2 N272C (Cdk2(N272C) (C177A))	Rate enhancement, Cdk2 T182C (Cdk2(T182C) (C177A))	Rate constant with Cdk2 T182C (Cdk2(T182C) (C177A))	Rate enhancement, Cdk2 R122C (Cdk2(R122C) (C177A))	Rate constant with Cdk2 R122C (Cdk2(R122C) (C177A))	Rate enhancement, Cdk2 S181C (Cdk2(S181C) (C177A))	Rate constant with Cdk2 S181C (Cdk2(S181C) (C177A))	further results
C=CC(=O)N1CCN(c2ccccc2[N+](=O)[O-])CC1 [EL-1134]	0.00444	0.004413	0.0071	1.609	0.007099	0.3385	1.597	0.02097	3.947	4.627	1.414	0.006242	1.119	0.004938	14.4	0.06354	1.145	0.005054	1.601	0.007065	Rate constant with Cdk2 F80C (Cdk2(C177A, F80C)): 0.01742; Rate constant with Cdk2 H71C (Cdk2(H71C) (C177A)): 0.02042
C=CC(=O)N1CCCCCC1c1ccc(N(C)C)cc1 (stereo not shown) [EL-1140]	0.00797	0.008126	0.00303	0.6141	0.00499	0.7455	0.3806	0.00407	0.7204	0	0.2024	0.001645	0.1121	0.0009109	1.338	0.01087	0.3699	0.003006	0.6713	0.005455	Rate constant with Cdk2 F80C (Cdk2(C177A, F80C)): 0.005854
C=CC(=O)NCC1(NC(=O)OC(C)(C)C)CCCCC1 [EL-1143]	0.00493	0.008837	0.014	4.291	0.03792	1.746	2.839	0.00802	1.059	0.2745	3.446	0.03045	1.495	0.01321	17.17	0.1517	0.3144	0.002778	2.376	0.021	Rate constant with Cdk2 F80C (Cdk2(C177A, F80C)): 0.009355; Rate constant with Cdk2 H71C (Cdk2(H71C) (C177A)): 0.002426
C=CC(=O)N1CCC(c2nc3ccccc3[nH]2)CC1 [EL-1152]	0.00606	0.005936	0.00612	1.186	0.007039	1.055	1.009	0.0058	0.816	0.6643	2.027	0.01203	0.326	0.001935	3.834	0.02276	0.7476	0.004438	0.9565	0.005678	Rate constant with Cdk2 F80C (Cdk2(C177A, F80C)): 0.004844; Rate constant with Cdk2 H71C (Cdk2(H71C) (C177A)): 0.003943
C=CC(=O)NC(C)c1cccc(N2CCOCC2)c1 (stereo not shown) [EL-1153]	0.00284	0.002823	0.00103	0.3642	0.001028	0.2449	0.3619	0.00419	0	0	2.7205E−11	7.68E−14	4.534	0.0128	0.474	0.001338	0.9706	0.00274	0.7428	0.002097	–
C=CC(=O)N1CCN(c2ccccc2C(N)=O)CC1 [EL-1155]	0.00836	0.01124	0.00466	0.4144	0.004658	1.221	0.5575	0.00382	0.3142	0.4653	1.346	0.01513	1.099	0.01235	2.129	0.02393	0.5734	0.006445	0.5376	0.006043	Rate constant with Cdk2 F80C (Cdk2(C177A, F80C)): 0.003532; Rate constant with Cdk2 H71C (Cdk2(H71C) (C177A)): 0.00523
C=CC(=O)N1CCN(c2cccc3cccnc23)CC1 [EL-1156]	0.01763	0.01759	0.01873	1.065	0.01873	0.8683	1.062	0.02157	1.015	0.3885	1.35	0.02375	0.3397	0.005976	4.097	0.07206	0.6879	0.0121	1	0.01759	Rate constant with Cdk2 F80C (Cdk2(C177A, F80C)): 0.01786; Rate constant with Cdk2 H71C (Cdk2(H71C) (C177A)): 0.006834
